Test results from patent US20100035926A1, “PYRAZOLE DERIVATIVES AS NON-STEROIDAL GLUCOCORTICOID RECEPTOR LIGANDS” (priority 2006, published 2010).
Where two headings read alike, the source gives them in different places.

How the values were obtained:
GR [1] = biological target: T1, GR (Homo sapiens, UniProt P04150); assay: GR Agonist Assay - MMTV Assay (A549 MMTV cells, renilla luciferase reporter); format: cell-based; conditions: 6 h, agonists, read-out: average maximum asymptote in the MMTV agonist assay
T1 construct: endogenous in cells; host or cells: A549 (human lung carcinoma, ECACC No. 86012804), stably transfected with reporter plasmids only
T1 sequence (P04150 1-777): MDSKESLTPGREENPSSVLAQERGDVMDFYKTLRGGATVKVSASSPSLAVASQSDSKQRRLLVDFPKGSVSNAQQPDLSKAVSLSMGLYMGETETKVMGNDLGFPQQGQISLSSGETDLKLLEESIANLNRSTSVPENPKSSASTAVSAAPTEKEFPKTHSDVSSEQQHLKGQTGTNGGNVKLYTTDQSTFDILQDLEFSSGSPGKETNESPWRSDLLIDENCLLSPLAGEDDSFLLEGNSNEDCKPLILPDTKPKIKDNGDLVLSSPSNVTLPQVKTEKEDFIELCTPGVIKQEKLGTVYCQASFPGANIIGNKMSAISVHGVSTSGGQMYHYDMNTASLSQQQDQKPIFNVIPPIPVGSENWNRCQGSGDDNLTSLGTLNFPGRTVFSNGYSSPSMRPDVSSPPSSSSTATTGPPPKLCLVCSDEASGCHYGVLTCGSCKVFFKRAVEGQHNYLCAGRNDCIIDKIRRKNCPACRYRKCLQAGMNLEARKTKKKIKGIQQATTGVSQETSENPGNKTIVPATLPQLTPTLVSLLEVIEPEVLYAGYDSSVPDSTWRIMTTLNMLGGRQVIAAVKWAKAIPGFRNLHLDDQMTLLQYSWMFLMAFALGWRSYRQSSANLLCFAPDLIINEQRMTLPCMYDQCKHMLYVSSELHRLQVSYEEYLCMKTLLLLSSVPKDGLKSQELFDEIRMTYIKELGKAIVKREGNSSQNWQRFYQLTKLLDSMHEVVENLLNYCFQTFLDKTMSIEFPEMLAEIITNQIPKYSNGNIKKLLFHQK
How it was run: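 Stably transfected A549 MMTV cells carry a GR-driven luciferase reporter. Cells at 0.1×10^6/ml in DMEM with 10% FCS and 25 mM HEPES were added to wells containing compound. After detection reagent, plates were held about 15 mins at room temperature and luminescence was read.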

glucocorticoid receptor = biological target: T2, glucocorticoid receptor (Homo sapiens, UniProt P04150); assay: Glucocorticoid Receptor Binding Assay (fluorescence polarisation, displacement of Alexa 555 labelled dexamethasone derivative); conditions: at least once in this assay; read-out: glucocorticoid binding pIC50 (converted)
T2 construct: a partially purified full length glucocorticoid receptor
T2 sequence (P04150 1-777): T1 sequence (P04150 1-777)
How it was run: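 Partially purified full-length GR incubated with test compound and fluorescent dexamethasone plus GR-stabilising buffer components, 2 hr at room temperature in the dark. Binding scored as displacement of tracer, read as decrease in fluorescence polarisation.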

GR [2] = biological target: T1, GR; assay: GR Functional Assay - NFκB Assay (A549 SPAP cells, TNFα stimulated); format: cell-based; conditions: for Emax: agonists, read-out: average maximum asymptote in the NFkB assay
How it was run: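 Stably transfected A549 SPAP cells at 0.16×10^6/ml in DMEM with 10% FCS were added to compound and stimulated with TNFα to drive NFκB-dependent SPAP expression. After 1 hr equilibration at room temperature, SPAP was read colorimetrically with pNPP in diethanolamine buffer, pH 9.8.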

[3] = Assay for Brain Penetrance; format: in vivo; conditions: brain and plasma, rat, single intravenous dose 1 mg/kg, read-out: brain to plasma ratio
Protocol: Each rat received a single intravenous dose at a level of 1 mg/kg. The dose was formulated in 10% DMSO/50% PEG200/40% sterile water. Terminal blood samples were taken at 5 or 15 mins after dosing, by cardiac puncture following anaesthesia with isofluorane. The brains were removed at the same time point.
The compounds were extracted from 20 μL plasma by protein precipitation using 120 μL acetonitrile containing an analogue compound as an internal standard. The filtered extracts were collected into a 96 well plate and were diluted with an equal volume of 10% acetonitrile containing 0.1% formic acid in water (v/v). The plate was then mixed on a plate shaker for at least 5 mins before analysis by LC-MS/MS against a calibration line prepared in control plasma.
Each brain was weighed, then homogenised in 3 ml acetonitrile:water (10:90v/v). The compounds were extracted from 200 μL of the resulting homogenate by protein precipitation using 600 μL acetonitrile containing an analogue compound as an internal standard. The extracts were centrifuged and 150 μl of each was filtered and transferred to a 96 well plate. The aliquot was diluted with 10% acetonitrile containing 0.1% formic acid in water (v/v). The plate was mixed on a plate shaker for at least 5 mins before analysis by LC-MS/MS against a calibration line prepared in control brain homogenate.

Progesterone Receptor = biological target: T3, Progesterone Receptor (Homo sapiens, UniProt P06401); assay: Assay for Progesterone Receptor Agonist Activity (CV-1 cells, PRb-BacMam, MMTV-BacMam); format: cell-based; conditions: at least once in this assay, read-out: progesterone receptor agonist pEC50 (converted)
T3 construct: expressed in transfected cells; host or cells: CV-1 cells transduced with PRb-BacMam and MMTV-BacMam
T3 sequence (P06401 1-933): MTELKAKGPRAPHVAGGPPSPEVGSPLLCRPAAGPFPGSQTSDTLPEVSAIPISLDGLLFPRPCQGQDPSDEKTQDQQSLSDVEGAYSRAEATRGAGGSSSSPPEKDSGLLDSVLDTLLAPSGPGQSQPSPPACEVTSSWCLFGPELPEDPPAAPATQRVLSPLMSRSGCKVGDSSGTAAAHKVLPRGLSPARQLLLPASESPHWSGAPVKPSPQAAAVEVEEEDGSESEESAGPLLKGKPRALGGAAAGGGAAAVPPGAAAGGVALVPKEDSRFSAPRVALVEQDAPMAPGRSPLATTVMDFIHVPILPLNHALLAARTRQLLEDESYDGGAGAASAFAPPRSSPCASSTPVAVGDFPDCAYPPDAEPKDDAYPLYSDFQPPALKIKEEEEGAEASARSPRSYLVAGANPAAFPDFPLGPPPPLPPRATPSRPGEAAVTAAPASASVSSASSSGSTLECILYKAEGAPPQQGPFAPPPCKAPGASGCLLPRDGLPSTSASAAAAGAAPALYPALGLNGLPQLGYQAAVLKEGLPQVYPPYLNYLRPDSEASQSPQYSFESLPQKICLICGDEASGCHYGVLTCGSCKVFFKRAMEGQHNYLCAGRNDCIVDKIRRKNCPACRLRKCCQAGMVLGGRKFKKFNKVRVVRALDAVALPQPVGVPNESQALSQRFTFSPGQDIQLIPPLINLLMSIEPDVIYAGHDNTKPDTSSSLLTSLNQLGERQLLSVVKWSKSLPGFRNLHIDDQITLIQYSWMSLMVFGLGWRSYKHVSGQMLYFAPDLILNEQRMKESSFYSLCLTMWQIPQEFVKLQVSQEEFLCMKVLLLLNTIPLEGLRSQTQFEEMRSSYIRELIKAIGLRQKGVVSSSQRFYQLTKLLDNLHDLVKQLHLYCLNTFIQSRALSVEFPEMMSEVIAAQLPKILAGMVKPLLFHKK
Protocol: A T225 flask of CV-1 cells at a density of 80% confluency was washed with PBS, detached from the flask using 0.25% trypsin and counted using a Sysmex KX-21N. Cells were diluted in DMEM containing 10% Hyclone, 2 mM […] and 1% Pen/Strep at 140 cells/μl and transduced with 10% PRb-BacMam and 10% MMTV-BacMam. […] of suspension cells were dispensed to each well of white Nunc 384-well plates, containing compounds at the required concentration. After 24 hr 10 μl of Steadylite were added to each well of the plates. Plates were incubated in the dark for 10 min before reading them on a Viewlux reader. Dose response curves were constructed from which pEC50 values were estimated.

[4] = at least once in the NFkB assay, A549 SPAP cells, read-out: pIC50 in the NFkB assay (converted)
[5] = at least once, examples listed as agonists in NFkB and MMTV assays, read-out: potency pIC50 in the NFKB assay (converted)

Row | Emax (GR [1]) | IC50 (glucocorticoid receptor) | Emax (GR [2]; A549 SPAP cells) | IC50 (GR [2]; [4]) | IC50 (GR [2]; [5]) | Kp at 5 min [3] | EC50 (Progesterone Receptor) | SMILES
1 | ≥ 40% | < 1000 nM | ≥ 40% | < 1000 nM | < 316 nM | – | > 1000 nM | CCN(CC(O)(CNC(=O)c1cnn(-c2ccccc2)c1N)C(F)(F)F)C(=O)c1ccccc1F (racemic) [Example 45 (racemic), 5-amino-N-[2-({ethyl[(2-fluorophenyl)car-bonyl]amino}methyl)-3,3,3-trifluoro-2-hydroxypropyl]-1-phenyl-1H-pyrazole-4-carboxamide]
2 | ≥ 40% | < 1000 nM | ≥ 40% | < 1000 nM | < 316 nM | – | > 1000 nM | CCN(CC(O)(CNC(=O)c1cnn(-c2ccccc2)c1N)C(F)(F)F)C(=O)c1ccccc1Cl (racemic) [Example 46 (racemic), 5-amino-N-(2-{[[(2-chlorophenyl)car-bonyl](ethyl)amino]methyl}-3,3,3-trifluoro-2-hydroxypropyl)-1-phenyl-1H-pyrazole-4-carboxamide]

Further lines, the compound ahead of its results:

Row | SMILES | Emax (GR [1]) | IC50 (glucocorticoid receptor) | Emax (GR [2]; A549 SPAP cells) | IC50 (GR [2]; [4]) | IC50 (GR [2]; [5]) | Kp at 5 min [3] | EC50 (Progesterone Receptor)
3 | CCN(CC(O)(CNC(=O)c1cnn(-c2ccc(F)c(F)c2)c1N)C(F)(F)F)C(=O)c1ccccc1 (racemic) [Example 24 (racemic), 5-amino-1-(3,4-difluorophenyl)-N-(2-{[ethyl(phenylcarbonyl)amino]methyl}-3,3,3-trifluoro-2-hydroxypropyl)-1H-pyrazole-4-carboxamide] | ≥ 40% | < 1000 nM | ≥ 40% | < 1000 nM | < 316 nM | ≥ 0.1 | –
4 | CCN(CC(O)(CNC(=O)c1cnn(-c2ccc(F)cc2)c1N)C(F)(F)F)C(=O)c1ncccc1Cl (single isomer, unassigned) [Example 3 Enantiomer 1, N-[2-[({[5-Amino-1-(4-fluorophenyl)-1H-pyrazol-4-yl]carbonyl]amino)methyl]-3,3,3-trifluoro-2-hydroxypropyl}-3-chloro-N-ethyl-2-Pyridinecarboxamide] | – | – | – | – | – | ≥ 0.1 | > 1000 nM
5 | CCN(CC(O)(CNC(=O)c1cnn(-c2ccc(F)cc2)c1N)C(F)(F)F)C(=O)c1ccccc1 (racemic) [Example 14 (racemic), 5-amino-N-(2-{[ethyl(phenylcar-bonyl)amino]methyl}-3,3,3-trifluoro-2-hydroxypropyl)-1-(4-fluorophenyl)-1H-pyrazole-4-carboxamide] | ≥ 40% | < 1000 nM | ≥ 40% | < 1000 nM | < 316 nM | – | > 1000 nM
6 | CCN(CC(O)(CNC(=O)c1cnn(-c2ccc(F)cc2)c1N)C(F)(F)F)C(=O)c1ccccc1C(F)(F)F (single isomer, unassigned) [Example 9 Enantiomer 1, 5-amino-N-{2-[(ethyl{[2-(trifluoromethyl)phenyl]carbonyl}amino)methyl]-3,3,3-trifluoro-2-hydroxypropyl}-1-(4-fluorophenyl)-1H-pyrazole-4-carboxamide] | ≥ 40% | < 1000 nM | ≥ 40% | < 1000 nM | < 316 nM | – | > 1000 nM
